In patent publication US11059855B2, “Antimicrobial peptides and methods of making and using same” (priority 2017, dated 2021):
Read-outs that look alike come from different tables or passages of the source.

Tests used:
[1] = previous work; cited from earlier work
[2] = Circular dichroism secondary structure (Dichroweb), with POPC; assay type: physicochemical
Experimental: (§1) Dichroweb software analyzes the secondary structure of LDKA peptides from circular dichroism spectroscope. The table presents the percentage of each helix and strand structure at different temperature. The data are analyzed using CONTIN-LL method and Reference Set 4 (Optimised for 190-240 nm).
(§2) Peptide solutions (peptide concentration is 50 μM) were titrated with POPC and POPG LUVs (50, 100, 250, 500, 1000 μM) and the corresponding changes CD spectra collected. Analysis of these spectra using CD tools and Dichroweb provides an ensemble average of the changes in secondary structure in the presence of POPC and POPG LUVs (dichroweb.cryst.bbk.ac.uk), which gives a direct measure of the binding free energies for each peptide.

[3] = Circular dichroism secondary structure (Dichroweb), peptide only; assay type: physicochemical; details: 20 °C
Experimental: as §1, §2

[4] = 3-kDa dextran macromolecule release assay, POPC; assay type: biochemical; details: P:L = 1:1000, pH 7 phosphate buffer
Experimental: Several different size dextrans were prepared and labelled with both TAMRA and biotin. Conjugated dextran was entrapped in POPC LUVs as described above. External dextran was removed by incubation with immobilized streptavidin. Streptavidin labelled with an Alexa-488 fluorophore was added during the leakage experiment with the peptide as previous described.^5 The sample was then incubated for 3 hr before measuring Alexa-488 fluorescence. A control without added peptide served as the 0% leakage signal and addition of 0.05% vol. Triton X-100 was used to determine 100% leakage.

[5] = tested on: methicillin-resistant Staphylococcus aureus (MRSA); assay type: cell-based; details: 75 μM maximum tested; NDA = not determinable
[6] = ANTS/DPX leakage assay, POPG; assay type: biochemical; details: P:L = 1:1000, pH 7 phosphate buffer
Experimental: (§3) 5 mM ANTS and 12.5 mM DPX were entrapped in 0.1 μm diameter extruded vesicles with lipids. Gel filtration chromatography of Sephadex G-100 (GE Healthcare Life Sciences Inc.) was used to remove external free ANTS/DPX from LUVs with entrapped contents. […] Leakage was measured after 3 hr incubation. 10% Triton was used as the positive control to measure the maximum leakage of the vesicle. Fluorescence emission spectra were recorded using excitation wavelength (Ex: 350 nm) and emission wavelength (Em: 510 nm) for ANTS/DPX using Synergy H1 Hybrid Multi-Mode Reader.
(§4) This detects and quantifies the release of a small fluorescent dye (ANTS/DPX; MW=˜400 Da) encapsulated in LUVs after addition of library peptides. Neutral POPC LUVs serve as a simple model for mammalian membranes, while charged POPG LUVs mimic bacterial membranes enriched in anionic lipids.

[7] = ANTS/DPX leakage assay, POPC; assay type: biochemical; details: P:L = 1:1000, pH 7 phosphate buffer
Experimental: as §3, §4

[8] = Membrane selectivity from high-throughput dye leakage screen; assay type: biochemical; details: PC = POPC, PG = POPG
Excerpt: as §4

P. aeruginosa = assay: Bacterial minimum inhibitory concentration (MIC), P. aeruginosa; assay type: cell-based, Pseudomonas aeruginosa; details: 75 μM maximum tested; NDA = not determinable
Experimental: (§5) Escherichia colt strain ATCC 25922, Staphylococcus aureus strain ATCC 25923, and Pseudomonas aeruginosa strain ATCC PAO1 were used in this study. Overnight cultures were subcultured to log phase (OD600=0.3-0.6) after which cell counts were determined by measuring the OD600 (OD600 1.0=1.5×10^8 CFU/mL for S. aureus, 5×10^8 CFU/mL for E. colt, and 2.04×10^8 CFU/mL for P. aeruginosa). Bacteria in minimal media mere added to serially diluted peptides and incubated for 3 hr, followed by the addition of full growth media. After overnight incubation, the optical density of the wells was recorded on a plate reader to determine whether they were sterilized (OD<0.08) or were at stationary phase growth (OD600>0.5). Intermediate values, which were rare, were considered positive for growth. Average minimum sterilizing concentrations were calculated from the lowest peptide concentration that sterilized the bacteria in each serial dilution. The samples were done in sextuplet.

[9] = tested on: ciprofloxacin-resistant E. coli
Experimental: “N.D.” means “not determined”.
Ceftazidime is active on the bacteria's cell wall and interferes with bacterial cell wall formation.^38,39 Ciprofloxacin is able to inhibit DNA gyrase, type II topoisomerase, and topoisomerase IV to separate bacterial DNA and inhibits cell division.^40 Streptomycin and gentamicin are antibiotics that can interrupt and inhibit protein synthesis.^41,42 E. coli strain ATCC 25922 cultures were grown in the presence of each of these antibiotics at elevated concentration for 10 generations.

[10] = 3-kDa dextran macromolecule release assay, POPG; assay type: biochemical; details: P:L = 1:1000, pH 7 phosphate buffer
Hemolysis assay = assay type: cell-based, human; details: human
Experimental: Fresh human red blood cells were obtained from Interstate Blood Bank, Inc., and thoroughly washed in PBS until the supernatant was clear. hRBC concentration was determined using a standard hemocytometer. In hemolysis assays serial dilutions of peptide were prepared, followed by the addition of 2×10^8 hRBC/mL. After incubation for 1 hr at 37° C. the cells were centrifuged and the released hemoglobin was measured by optical absorbance of the heme group (410 nm). Negative control was buffer only (0% lysis), and the positive control was 20 μM melittin and distilled water (100% lysis). The samples were done in triplicate.

[11] = provided by the distributor, GenScript; cited from earlier work
[12] = Circular dichroism secondary structure (Dichroweb), with POPG; assay type: physicochemical
Experimental: as §1, §2

[13] = Pore-size characterization by 3-kDa dextran release; assay type: biochemical; details: ‡Large pore for PG only
Excerpt: Eight LDKA peptides with different lipid selectivity and pore sizes were selected from the high-throughput screen and sequenced. […] The most common mutation is L to A, occurred 13 times and in 7 out of the 8 peptides, followed by A to L, which occurred 6 times in 5 peptides, L to D which occurred 3 times in 3 peptides, and L to P that occurred once. Lysine (K) is not favorable to be shown at the position 6, 8, 10, 12, and 13, which is the non-polar face of the helical structure. […] More specifically, the analogs only induce leakage from anionic POPG vesicles have 4-5 leucines, which is less than the analogs that can porate both POPC and POPG vesicles and have 6-7 leucines in their sequences.

Escherichia coli biofilm = assay: Activity against biofilm, E. coli; assay type: cell-based; details: 67-150 μM peptide, 3 hr treatment
Experimental: (§6) Selected analogues were tested with each (13A). Escherichia coli biofilm, (13B). Staphylococcus aureus biofilm, and (13C) Pseudomonas aeruginosa biofilm.
(§7) However, most of the LDKA analogues fail to treat S. aureus and P. aeruginosa biofilms. Only K7H and 7F3 are capable to reduce S. aureus biofilms by ˜50% with 100 μM peptide concentration, and none of the analogues work against P. aeruginosa biofilms (FIGS. 13a-13c).

[14] = tested on: Staphylococcus aureus biofilm; assay: Activity against biofilm, S. aureus; assay type: cell-based; details: 100 μM peptide concentration, 3 hr treatment
Experimental: as §6, §7

S. aureus = assay: Bacterial minimum inhibitory concentration (MIC), S. aureus; assay type: cell-based, Staphylococcus aureus; details: 75 μM maximum tested; NDA = not determinable
Experimental: as §5

Substance: GL5RL5G: polyleucine-based peptide of the acetyl-GLnRLnG-amide family, n=5 (SEQ ID NO: 28) (Ac-GLLLLLRLLLLLG-NH2)
- ΔGS→TM [1]: 2.1 ± 0.2 kcal/mol

Substance: GL6RL6G: polyleucine-based peptide of the acetyl-GLnRLnG-amide family, n=6 (SEQ ID NO: 29) (Ac-GLLLLLLRLLLLLLG-NH2)
- ΔGS→TM [1]: 0.5 ± 0.3 kcal/mol

Substance: H-GLDDLAKLLLKLAGW-NH2 [Peptide 25B2]
- Peptide-POPC, Helix ([2]; 20 °C): 80%
- Peptide-POPC, Strand ([2]; 20 °C): 3%
- Peptide-POPC, Helix ([2]; 45 °C): 90%
- Peptide-POPC, Strand ([2]; 45 °C): 1%
- Peptide-POPC, Helix ([2]; 70 °C): 81%
- Peptide-POPC, Strand ([2]; 70 °C): 1%
- Peptide-POPC, Helix ([2]; 95 °C): 61%
- Peptide-POPC, Strand ([2]; 95 °C): 6%
- Peptide-only, Helix [3]: 67%
- Peptide-only, Strand [3]: 3%
- 3-kDa Dextran release, POPC [4]: -2%
- Minimum Inhibitory Concentration, MRSA [5]: NDA
- ANTS/DPX release, POPG [6]: 99%
- ANTS/DPX release, POPC [7]: 98%
- Membrane selectivity (POPC vs POPG vesicles) [8]: Non-selective
- Minimum Inhibitory Concentration, P. aeruginosa (P. aeruginosa): NDA
- MIC, ciprofloxacin-resistant E. coli [9]: completely fail
- 3-kDa Dextran release, POPG [10]: 100%
- HC50 at 1 hr (Hemolysis assay): 35.5 µM
- Solubility, DMSO [11]: 15 mg/mL
- Solubility, DPBS pH 7.1 [11]: <0.1 mg/mL
- Solubility, Ultrapure Water [11]: 10 mg/mL
- Peptide-POPG, Helix ([12]; 20 °C): 98%
- Peptide-POPG, Strand ([12]; 20 °C): 0%
- Peptide-POPG, Helix ([12]; 45 °C): 98%
- Peptide-POPG, Strand ([12]; 45 °C): 0%
- Peptide-POPG, Helix ([12]; 70 °C): 93%
- Peptide-POPG, Strand ([12]; 70 °C): 0%
- Peptide-POPG, Helix ([12]; 95 °C): 87%
- Peptide-POPG, Strand ([12]; 95 °C): 1%
- Pore size [13]: Large‡
- Elimination of E. coli biofilm (Escherichia coli biofilm): ~50%

Substance: H-GLDDLLKALLKAAGW-NH2 [Peptide 4H9]
- Peptide-POPC, Helix ([2]; 20 °C): 82%
- Peptide-POPC, Strand ([2]; 20 °C): 0%
- Peptide-POPC, Helix ([2]; 45 °C): 77%
- Peptide-POPC, Strand ([2]; 45 °C): 0%
- Peptide-POPC, Helix ([2]; 70 °C): 66%
- Peptide-POPC, Strand ([2]; 70 °C): 4%
- Peptide-POPC, Helix ([2]; 95 °C): 47%
- Peptide-POPC, Strand ([2]; 95 °C): 11%
- Peptide-only, Helix [3]: 63%
- Peptide-only, Strand [3]: 2%
- 3-kDa Dextran release, POPC [4]: -4%
- Minimum Inhibitory Concentration, MRSA [5]: NDA
- ANTS/DPX release, POPG [6]: 43%
- ANTS/DPX release, POPC [7]: 110%
- Membrane selectivity (POPC vs POPG vesicles) [8]: PC > PG
- Minimum Inhibitory Concentration, P. aeruginosa (P. aeruginosa): NDA
- MIC, ciprofloxacin-resistant E. coli [9]: completely fail
- HC50 at 1 hr (Hemolysis assay; peptide concentration lysing 50% of red blood cells, estimated using polynomial regression, read-out: Hemolysis Assay LC50): 56.6 µM
- Solubility, DMSO [11]: 15 mg/mL
- Solubility, DPBS pH 7.1 [11]: 10 mg/mL
- Solubility, Ultrapure Water [11]: 5 mg/mL
- Peptide-POPG, Helix ([12]; 20 °C): 93%
- Peptide-POPG, Strand ([12]; 20 °C): 0%
- Peptide-POPG, Helix ([12]; 45 °C): 91%
- Peptide-POPG, Strand ([12]; 45 °C): 0%
- Peptide-POPG, Helix ([12]; 70 °C): 83%
- Peptide-POPG, Strand ([12]; 70 °C): 0%
- Peptide-POPG, Helix ([12]; 95 °C): 73%
- Peptide-POPG, Strand ([12]; 95 °C): 1%
- Pore size [13]: Small
- Elimination of E. coli biofilm (Escherichia coli biofilm): ~50%

Substance: H-GLLDLLHLLLKAAGW-NH2 [Peptide K7H]
- Peptide-POPC, Helix ([2]; 20 °C): 65%
- Peptide-POPC, Strand ([2]; 20 °C): 5%
- Peptide-POPC, Helix ([2]; 45 °C): 80%
- Peptide-POPC, Strand ([2]; 45 °C): 1%
- Peptide-POPC, Helix ([2]; 70 °C): 80%
- Peptide-POPC, Strand ([2]; 70 °C): 2%
- Peptide-POPC, Helix ([2]; 95 °C): 72%
- Peptide-POPC, Strand ([2]; 95 °C): 3%
- Peptide-only, Helix [3]: 62%
- Peptide-only, Strand [3]: 4%
- Minimum Inhibitory Concentration, P. aeruginosa (P. aeruginosa): does not inhibit and NDA
- CC50 at 1 hr (Hemolysis assay): 2300 nM
- Reduction of S. aureus biofilms [14]: ~50%
- Solubility, DMSO [11]: 15 mg/mL
- Solubility, DPBS pH 7.1 [11]: <0.1 mg/mL
- Solubility, Ultrapure Water [11]: 1 mg/mL
- Peptide-POPG, Helix ([12]; 20 °C): 53%
- Peptide-POPG, Strand ([12]; 20 °C): 11%
- Peptide-POPG, Helix ([12]; 45 °C): 59%
- Peptide-POPG, Strand ([12]; 45 °C): 8%
- Peptide-POPG, Helix ([12]; 70 °C): 77%
- Peptide-POPG, Strand ([12]; 70 °C): 2%
- Peptide-POPG, Helix ([12]; 95 °C): 77%
- Peptide-POPG, Strand ([12]; 95 °C): 2%
- Minimum Inhibitory Concentration, S. aureus (S. aureus): 3 µM
